The source of these data is publication PMC6385358, “Discovery of ((1,2,4-oxadiazol-5-yl)pyrrolidin-3-yl)ureidyl derivatives as selective non-steroidal agonists of the G-protein coupled bile acid receptor-1” (Scientific Reports, 2019).

Series [1] can be described thus: Aqueous solubility measurement (PBS pH 7.4, LC-MS). It counts as physicochemical. The conditions noted are these: aqueous buffer, kinetic from dmso stock; PBS pH 7.4, 24 h room temperature. As for the experimental part:
(§1) Chromatography was performed using a HPLC–MS system Q-ToF Premiere instrument (Waters, Co.) equipped with an ESI source and Waters pump systems. The mixture was separated on a Luna 5 µm C8(2) 100 °A 150 × 2 mm from Phenomenex. The mobile phase consisted of 0.2% formic acid (FA) in water as solvent A and 0.2% FA in acetonitrile as solvent B at a flow rate of 200 μL/min. The gradient was as follows: 0–2 min (75% A and 25% B), 2–20 min (5% A and 95% B), 20–30 min (75% A and 25% B). The detection of analytes was achieved by ESI in the positive mode with the appropriate MRM transition or by UV system at 220 nm.
Ten μL of a 10 mM solution in DMSO of the compound was diluted either in 490 μL of PBS pH 7.4 or in the organic solvent MeOH (in triplicate). The tubes were gently shaken 24 h at room temperature, then centrifuged for 5 min at 4000 rpm. Ten μL of sample was diluted in 490 μL of MeOH. The solubility is determined by the ratio of mass signal area PBS/organic solvent.

A short description of series [2]: Liver microsomal stability. As to conditions: liver microsomes; for CIint / half-life at 1 μM: 1 μM compound; for CIint: 0.3 mg protein/mL; for half-life at 1 μM: male, CD-1, mouse, pH 7.4, read-out: t½. Type of series: in vitro ADME, mouse. As for the experimental part: as §1
Male mouse (CD-1) liver microsomes (Sigma-Aldrich) were used. All incubations were performed in duplicate in a shaking water bath at 37 °C. The incubation mixtures contained 1 μM compound with 1% DMSO used as a vehicle, mouse liver microsomes (0.3 mg of microsomal protein per mL), 5 mM MgCl2, 1 mM NADP, 5 mM glucose 6-phosphate, 0.4 U·mL^-^1 glucose 6-phosphate dehydrogenase, and 50 mM potassium phosphate buffer (pH 7.4) in a final volume of 0.5 mL. Aliquots were removed at 0, 5, 10, 20, 30, and 40 min after microsome addition and the reaction was stopped by adding 200 μL of ice-cold acetonitrile. After 2 h, the samples were centrifuged for 10 min at 10000 rpm, and the supernatants were transferred in matrix tubes for LC-MS/MS analysis. Propranolol, known as a high hepatic clearance drug in rodents, was used as a quality-control compound for the microsomal incubations. The slope of the linear regression of the curve obtained reporting the natural logarithm of compound area versus incubation time (−k) was used in the conversion to in vitro t1/2 values by t1/2 = […]. In vitro intrinsic clearance (Clint expressed as μL/min/mg) was calculated according to the following formula: Clint = volume of reaction (μL)/t1/2 (min)/protein of liver microsomes (mg).

The target in the next series is T1, PPARγ (Homo sapiens, UniProt P37231).
T1 construct: host or cells: HepG2
T1 sequence (P37231 1-505): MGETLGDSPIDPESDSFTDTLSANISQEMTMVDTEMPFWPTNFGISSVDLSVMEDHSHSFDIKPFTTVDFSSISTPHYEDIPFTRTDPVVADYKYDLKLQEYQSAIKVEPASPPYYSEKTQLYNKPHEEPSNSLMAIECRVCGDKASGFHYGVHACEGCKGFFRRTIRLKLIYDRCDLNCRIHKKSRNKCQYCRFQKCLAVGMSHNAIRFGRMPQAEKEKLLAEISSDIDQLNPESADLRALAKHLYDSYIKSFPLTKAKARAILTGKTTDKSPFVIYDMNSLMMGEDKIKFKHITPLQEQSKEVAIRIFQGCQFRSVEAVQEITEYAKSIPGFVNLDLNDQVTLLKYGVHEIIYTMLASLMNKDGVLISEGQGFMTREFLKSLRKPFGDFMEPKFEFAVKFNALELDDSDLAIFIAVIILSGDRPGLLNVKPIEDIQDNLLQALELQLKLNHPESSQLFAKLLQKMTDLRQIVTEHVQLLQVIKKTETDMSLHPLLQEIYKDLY
Put plainly: Luciferase reporter specificity assay versus PPARγ on HepG2 cells. It counts as cell-based. The conditions noted are these: 10 μM. As for the experimental part: The activity of compounds 1–14 on GPBAR1 was evaluated in a luciferase reporter assay using HEK-293T cells transfected with GPBAR1. The efficacy of tested compounds (Table 1) was measured using taurolithocholic acid (TLCA) as GPBAR1 reference compound[10],[11]. Each compound was tested at the concentration of 10 μM and transactivation activity of TLCA on a cAMP responsive element (CRE) (i.e. TGR5/GPBAR1) was considered equal to 100%. […] Thus, 9 and 10 (Table 1) turned out to be the most promising derivatives considering their low EC50 values and high activity efficacy. To further characterize the pharmacological properties of these compounds, we expanded their in vitro profile to common off-targets for bile acid receptor ligands.
Figure 3 (A) Dose response curves of compounds 9 and 10 (concentrations ranging from 1 to 50 µM) in luciferase reporter assay. (B) Real-time PCR analysis of mRNA expression of Pro-glucagon in GLUTag cells treated with compounds 9 and 10 at 10 μM, and TLCA used as a positive control (10 μM). Values are normalized to GAPDH and are expressed relative to those of not treated cells (NT) which are arbitrarily settled to 1. The relative mRNA expression is expressed as 2^(−ΔΔCt). […]
The specificity of compounds 9 and 10 versus PPARα, PPARγ, LXRα, LXRβ, FXR and PXR was determined in luciferase reporter gene assays as previously reported[29],[31].

Molecules are shown by their SMILES. Several values for one entry are separate records, joined by “and”; a condition that tells them apart may be missing. Equal values may be shown once.

Consider `O=C(Nc1ccc(Cl)cc1)N[C@@H]1CN[C@H](c2nc(-c3ccccc3)no2)C1` [Compound 9], for which the solubility at 24 h in series [1] was 42 µg/mL and 110 µM. In series [2], the CIint came to 67 μL/min/mg protein, the “Compound remaining 40 min after treatment” value stood at 42% and the half-life at 1 μM came out at 35 min. The PPARγ transactivation entry at PPARγ is reported as “unable to induce”.

Turning to `O=C(NC1CCCCC1)N[C@@H]1CN[C@H](c2nc(-c3ccccc3)no2)C1` [Compound 10], the solubility at 24 h in series [1] is 70 µg/mL and 198 µM. In series [2], the CIint turned out to be 76 μL/min/mg protein, the “Compound remaining 40 min after treatment” value was found to be 40% and the half-life at 1 μM stood at 30 min. The PPARγ transactivation entry at PPARγ was “unable to induce”.
